Measured values: US20100292327A1, “TREATMENT OF ASPIRIN RESISTANCE WITH BETAINE AND/OR BETAINE ENRICHED MOLASSES” (priority 2007, published 2010)
Values joined by “and” are separate entries in the source; they are usually repeats but may differ in a detail not shown here. Identical values can stand only once. Like-named read-outs stand apart in the source and are kept apart here.

Assays:
[1] = system: platelet aggregation in whole blood, activation by collagen; assay: Multiplate whole blood aggregometry, COL test, blood supplemented with betaine (Example 1); format: cell-based, human (CAD patients); set-up: Collagen aggregation / Collagen aggregation, mean: unit not given here; details: for Collagen aggregation / Collagen aggregation, mean: betaine 50 μg/ml; for inhibition at 50 µg/mL: Homo sapiens, Platelet
Experimental: (§1) Protocol Blood of 24 CAD patients on Aspirin or Aspirin+Clopidogrel is supplemented with saline or Betaine (50 μg/ml) and tested for Whole Blood Aggregometry using a Multiplate® (Dynabyte Informations System GmbH, Munich) whole blood aggregometer different agonists where used i.e.:
(§2) ASPI test: Activation by arachidonic acid to detect Aspirin effects. COL test: Collagen activates the collagen receptor, which leads to a release of endogenous arachidonic acid, which is converted to TXA2 and activates the platelet. ADP test: ADP stimulates platelet activation by the ADP receptors. The most important ADP receptor (P2Y12) is blocked by clopidogrel, prasugrel and ticlopidine. TRAP test: TRAP-6 stimulates the thrombin receptor on the platelet surface. TRAP test allows detecting GPIIb/IIIa antagonists.

[2] = system: platelet aggregation in whole blood, activation by ADP; assay: Multiplate whole blood aggregometry, ADP test, blood supplemented with betaine (Example 1); format: cell-based, human (CAD patients); set-up: ADP aggregation / ADP aggregation, mean: unit not given here; details: for ADP aggregation / ADP aggregation, mean: betaine 50 μg/ml; for inhibition at 50 µg/mL: Homo sapiens, Platelet, betaine 50 μg/ml vs. saline
Experimental: as §1, §2

[3] = system: whole blood aggregation, TRAP test; assay: Whole blood aggregation (Multiplate) TRAP test before and one hour after oral betaine (Example 11); format: in vivo, human (patients); details: for TRAP aggregation (AUC): individual patients (one line per patient), one hour after 4 g betaine oral, on aspirin 100 mg/day
Experimental: (§3) 20 patients attending Hospital cardiovascular consultation were enrolled for the study. Patients were all on 100 mg/day aspirin for their cardiovascular protection. Necessary ethical clearance was obtained from Hospital IRB.
(§4) Whole blood aggregation profile using Multiplate® instrument was assessed for each patient before and one hour after oral administration of 4 g of betaine. Blood was sampled on hirudin as anticoagulant.
(§5) Using the different test procedures available for the Multiplate® comprehensive information on platelet function and antiplatelet effects of betaine vs. basal values was assessed. Agonists were prepared in 1 ml solutions according to Multiplatc technical sheets and were used in the following volumes or concentrations: ASPI test: 20 μL, COL test: 20 μL, TRAP test: 20 μL, ADP test: 20 μL, RISTO test: 40 μL (1.2 mg/ml).

[4] = system: whole blood aggregation, Collagen; assay: Whole blood aggregation (Multiplate) COL test before and one hour after oral betaine (Example 11); format: in vivo, human (patients); details: for Collagen aggregation (AUC): individual patients (one line per patient), one hour after 4 g betaine oral, on aspirin 100 mg/day
Experimental: as §3, §4, §5

[5] = system: platelet aggregation in whole blood, activation by TRAP-6; assay: Multiplate whole blood aggregometry, TRAP test, blood supplemented with betaine (Example 1); format: cell-based, human (CAD patients); set-up: TRAP aggregation / TRAP aggregation, mean: unit not given here; details: for TRAP aggregation / TRAP aggregation, mean: betaine 50 μg/ml; for inhibition at 50 µg/mL: Homo sapiens, Platelet, betaine 50 μg/ml vs. saline
Experimental: as §1, §2

[6] = system: whole blood aggregation, AspiTest (arachidonic acid); assay: Whole blood aggregation (Multiplate) ASPI test before and one hour after oral betaine (Example 11); format: in vivo, human (patients); details: for AspiTest aggregation (AUC): individual patients (one line per patient), one hour after 4 g betaine oral, on aspirin 100 mg/day
Experimental: as §3, §4, §5

[7] = system: whole blood aggregation, ADP; assay: Whole blood aggregation (Multiplate) ADP test before and one hour after oral betaine (Example 11); format: in vivo, human (patients); details: for ADP aggregation (AUC): individual patients (one line per patient), one hour after 4 g betaine oral, on aspirin 100 mg/day
Experimental: as §3, §4, §5

[8] = system: platelet aggregation in whole blood, activation by arachidonic acid; assay: Multiplate whole blood aggregometry, ASPI test, blood supplemented with betaine (Example 1); format: cell-based, human (CAD patients); set-up: AspiTest aggregation / AspiTest aggregation, mean: unit not given here; details: for AspiTest aggregation / AspiTest aggregation, mean: betaine 50 μg/ml; for inhibition at 50 µg/mL: Homo sapiens, Platelet
Experimental: as §1, §2

[9] = system: whole blood aggregation, Ristocetin; assay: Whole blood aggregation (Multiplate) RISTO test before and one hour after oral betaine (Example 11); format: in vivo, human (patients); details: for Ristocetin aggregation (AUC): individual patients (one line per patient), one hour after 4 g betaine oral, on aspirin 100 mg/day
Experimental: as §3, §4, §5

[10] = ASA and ASA/clopidogrel non responders, individual patients (one line per patient)
[11] = betaine 50 μg/ml vs. saline, p<0.05
[12] = individual patients # 1-24 (one line per patient), blood of CAD patients on aspirin or aspirin+clopidogrel
[13] = 20 patients, after 4 g betaine by oral route
[14] = ASA poor responders, after 4 g betaine oral
[15] = ASA responders, after 4 g betaine oral
[16] = after 4 g betaine oral, patients on aspirin 100 mg/day

## C[N+](C)(C)CC(=O)O [betaine, glycine betaine of formula (CH3)3N^+(CH2) COO^−]
[1]; [10]
  Collagen aggregation: 42 and 30 and 76 and 91 (2×) and 75 (2×) and 88 and 21 and 24
[1]; ASA and ASA/clopidogrel non responders, betaine 50 μg/ml vs. saline, P (Student) 0.0242, read-out: Additional inhibition, Collagen
  inhibition at 50 µg/mL: 17%
[1]; all 24 patients, betaine 50 μg/ml vs. saline, P (Student) 0.0006, read-out: Betaine additional inhibition, Collagen
  inhibition at 50 µg/mL: 20%
[1]; [11]
  synergistic effect with aspirin and/or clopidogrel on collagen: significant
[1]; [12]
  Collagen aggregation: 4 and 3 (2×) and 35 and 21 (2×) and 75 (2×) and 91 (2×) and 26 and 34 and 29 and 59 and 25 and 24 and 42 and 2 and 30 and 8 and 17 and 76 and 88 and 46
[1]; mean of 10 ASA and ASA/clopidogrel non responders, saline mean 74.4
  Collagen aggregation, mean: 61.3
[1]; mean of 24 patients, saline mean 48.46
  Collagen aggregation, mean: 38.54
[2]; [10]
  ADP aggregation: 173 and 70 and 89 (2×) and 86 and 90 and 63 and 77 and 83 and 56
[2]; ASA and ASA/clopidogrel non responders, P (Student) 0.449, read-out: Additional inhibition, ADP
  inhibition at 50 µg/mL: 5%
[2]; all patients, P (Student) 0.067, read-out: Betaine additional inhibition, ADP
  inhibition at 50 µg/mL: 8%
[2]; [12]
  ADP aggregation: 44 and 1 and 68 and 46 and 63 and 77 and 82 and 57 and 83 and 100 and 81 and 56 and 173 and 4 and 70 and 29 and 6 and 13 and 89 (2×) and 86 and 90 and 115
[2]; mean of 10 ASA and ASA/clopidogrel non responders, saline mean 91.8
  ADP aggregation, mean: 87.6
[2]; mean of patients, saline mean 71.78
  ADP aggregation, mean: 66.17
[3]; [13]
  Difference Vs. basal, TRAP: 0%
[3]; 20 patients, after 4 g betaine by oral route, basal mean 91.95
  Mean of AUC aggregations, TRAP: 91.9
[3]; [14]
  Difference Vs. basal, TRAP: 3%
[3]; ASA poor responders
  TRAP aggregation (AUC): 106 (2×) and 66 (2×) and 133 and 103 and 60 and 95
[3]; [15]
  Difference Vs. basal, TRAP: −2%
[3]; ASA responders
  TRAP aggregation (AUC): 64 and 154 and 115 and 136 and 131 and 29 and 80 and 77 (2×) and 67 and 104 and 69
[3]; mean of 8 ASA poor responders after 4 g betaine oral, basal mean 89
  TRAP aggregation, mean: 91.875
[3]; mean of 12 ASA responders after 4 g betaine oral, basal mean 93.92
  TRAP aggregation, mean: 91.92
[4]; 20 patients, after 4 g betaine by oral route, P Student 0.045
  Difference Vs. basal, Collagen: −19%
[4]; 20 patients, after 4 g betaine by oral route, basal mean 30.35
  Mean of AUC aggregations, Collagen: 24.65
[4]; [14]
  Difference Vs. basal, Collagen: −1%
[4]; ASA poor responders
  Collagen aggregation (AUC): 47 and 48 and 32 and 18 and 10 and 58 and 65 and 57
[4]; ASA responders, after 4 g betaine oral, P Student 0.039
  Difference Vs. basal, Collagen: −41%
[4]; ASA responders
  Collagen aggregation (AUC): 11 and 7 and 29 and 12 and 23 and 4 and 10 (2×) and 3 (2×) and 30 and 16
[4]; [16]
  effect on platelet function, collagen aggregation: ameliorated significantly
[4]; mean of 8 ASA poor responders after 4 g betaine oral, basal mean 42.375
  Collagen aggregation, mean: 41.875
[4]; mean of 12 ASA responders after 4 g betaine oral, basal mean 22.33
  Collagen aggregation, mean: 13.17
[5]; [10]
  TRAP aggregation: 155 and 141 and 93 and 179 and 120 and 100 and 67 and 103 (2×) and 29
[5]; ASA and ASA/clopidogrel non responders, P (Student) 0.093, read-out: Additional inhibition, TRAP
  inhibition at 50 µg/mL: 19%
[5]; all patients, P (Student) 0.0392, read-out: Betaine additional inhibition, TRAP
  inhibition at 50 µg/mL: 13%
[5]; [12]
  TRAP aggregation: 60 (2×) and 102 and 79 and 67 and 103 (2×) and 87 and 84 and 31 and 153 and 152 and 29 and 155 and 141 and 83 and 30 and 22 and 93 and 179 and 120 and 100 and 127
[5]; mean of 10 ASA and ASA/clopidogrel non responders, saline mean 133.7
  TRAP aggregation, mean: 109
[5]; mean of patients, saline mean 108
  TRAP aggregation, mean: 93.91
[6]; 20 patients, after 4 g betaine by oral route, P Student 0.57
  Difference Vs. basal, AspiTest: 5%
[6]; 20 patients, after 4 g betaine by oral route, basal mean 23.05
  Mean of AUC aggregations, AspiTest: 24.15
[6]; [14]
  Difference Vs. basal, AspiTest: 3%
[6]; ASA poor responders
  AspiTest aggregation (AUC): 24 and 74 and 81 and 69 and 46 and 27 and 35 and 52
[6]; ASA responders, after 4 g betaine oral, P Student 0.6
  Difference Vs. basal, AspiTest: 14%
[6]; ASA responders
  AspiTest aggregation (AUC): 11 and 7 and 4 (2×) and 9 (2×) and 5 and 1 and 3 (2×) and 6 and 13
[6]; mean of 8 ASA poor responders after 4 g betaine oral, basal mean 49.375
  AspiTest aggregation, mean: 51
[6]; mean of 12 ASA responders after 4 g betaine oral, basal mean 5.5
  AspiTest aggregation, mean: 6.25
[7]; [13]
  Difference Vs. basal, ADP: 2%
[7]; 20 patients, after 4 g betaine by oral route, basal mean 55.55
  Mean of AUC aggregations, ADP: 56.5
[7]; ASA poor responders, after 4 g betaine oral, P Student 0.5
  Difference Vs. basal, ADP: −7%
[7]; ASA poor responders
  ADP aggregation (AUC): 71 and 53 and 66 and 60 and 38 and 32 and 70 and 40
[7]; [15]
  Difference Vs. basal, ADP: 8%
[7]; ASA responders
  ADP aggregation (AUC): 2 and 121 and 64 (2×) and 80 and 93 and 14 and 51 and 47 and 44 and 75 and 45
[7]; mean of 8 ASA poor responders after 4 g betaine oral, basal mean 57.75
  ADP aggregation, mean: 53.75
[7]; mean of 12 ASA responders after 4 g betaine oral, basal mean 54.08
  ADP aggregation, mean: 58.33
[8]; [10]
  AspiTest aggregation: 121 and 75 and 97 and 125 and 87 and 94 (2×) and 84 and 49 and 61
[8]; ASA and ASA/clopidogrel non responders, betaine 50 μg/ml vs. saline, P (Student) 0.0043, read-out: Additional inhibition, AspiTest
  inhibition at 50 µg/mL: 20%
[8]; all 24 patients, betaine 50 μg/ml vs. saline, P (Student) 0.0109, read-out: Betaine additional inhibition, AspiTest
  inhibition at 50 µg/mL: 17%
[8]; [11]
  synergistic effect with aspirin and/or clopidogrel on AspiTest: significant
[8]; [12]
  AspiTest aggregation: 10 and 22 and 54 and 18 and 84 and 94 (2×) and 62 and 29 and 21 and 49 and 17 (2×) and 5 and 61 and 121 and 13 and 75 and 12 and 6 and 97 and 125 and 87 and 77
[8]; mean of 10 ASA and ASA/clopidogrel non responders, saline mean 111.1
  AspiTest aggregation, mean: 88.7
[8]; mean of 24 patients, saline mean 62.54
  AspiTest aggregation, mean: 52.08
[9]; 20 patients, after 4 g betaine by oral route, P Student 0.012
  Difference Vs. basal, Ristocetin: −37%
[9]; 20 patients, after 4 g betaine by oral route, basal mean 53.4
  Mean of AUC aggregations, Ristocetin: 33.6
[9]; ASA poor responders, after 4 g betaine oral, P Student 0.22
  Difference Vs. basal, Ristocetin: −24%
[9]; ASA poor responders
  Ristocetin aggregation (AUC): 62 and 78 and 123 and 81 and 30 and 2 and 43 and 11
[9]; ASA responders, after 4 g betaine oral, P Student 0.031
  Difference Vs. basal, Ristocetin: −52%
[9]; ASA responders
  Ristocetin aggregation (AUC): 39 and 10 and 42 and 23 and 35 and 6 and 3 and 21 and 14 (2×) and 26 and 9
[9]; [16]
  effect on platelet function, ristocetin aggregation (agglutination): ameliorated significantly
[9]; mean of 8 ASA poor responders after 4 g betaine oral, basal mean 70.75
  Ristocetin aggregation, mean: 53.75
[9]; mean of 12 ASA responders after 4 g betaine oral, basal mean 41.83
  Ristocetin aggregation, mean: 20.17
